From patent US11944623B2, “Modulators of Kv3 channels to treat pain” (Autifony Therapeutics Limited, priority 2015, dated 2024)

Columns and labels:
[1] = molecular target: T1, Human Kv7.2/7.3 heteromeric channels (Homo sapiens, UniProt O43525+O43526); experiment: Kv7.2/7.3 patch clamp assay; format: cell-based; settings: 10 µM concentration (N=3)
T1 construct: expressed in transfected cells
Method: Human Kv7.2/7.3 heteromeric channels were stably expressed in a HEK293 cell line. Cells were plated onto 13 mm plastic dishes and incubated for 1-3 days in a 5% CO2 incubator for conventional whole-cell patch clamp experiments. Electrophysiological recordings were made using an automated patch clamp platform (QPatch, Sophion Biosciences). Internal (pipette) solution contained (in mM): K-Aspartate (130), KCl (15), MgCl2 (5.5), Na2ATP (5), K2PCr (5), EGTA (20), HEPES (10), pH 7.25 with KOH, was used to study Kv7.2/7.3 currents. Cells were superfused at room temperature with a standard physiological solution containing (mM): NaCl (140), KCl (4), CaCl2 (2), MgCl2 (1), glucose (10), HEPES (10), pH 7.35 with NaOH.
Patch pipettes were pulled from borosilicate glass and had tip resistances of 2-4 MW when filled with the above solution. Capacitative transients were compensated electronically from the recordings. However, the voltage drop across the series resistance and the liquid junction potential were not compensated. The series resistance was generally less than 10 MG (n=5 cells), with a mean cell capacity of 25±5 pF.
In some cases, manual patch clamp was carried out using an Axon 200B amplifier (Axon Instruments). The software program pClamp (version 10) from Axon Instruments was used to stimulate and record electrical activity. […]

[2] = molecular target: T2, hKv3.4 channels (Homo sapiens, UniProt Q03721); experiment: Kv3.4 Assay 3 (two-electrode voltage clamp, Xenopus oocytes); format: cell-based; parameters: dose or concentration left out as unconfirmed
T2 construct: expressed in transfected cells; host or cells: Xenopus laevis oocytes, microinjected in vitro transcribed mRNA
T2 sequence (Q03721 1-635): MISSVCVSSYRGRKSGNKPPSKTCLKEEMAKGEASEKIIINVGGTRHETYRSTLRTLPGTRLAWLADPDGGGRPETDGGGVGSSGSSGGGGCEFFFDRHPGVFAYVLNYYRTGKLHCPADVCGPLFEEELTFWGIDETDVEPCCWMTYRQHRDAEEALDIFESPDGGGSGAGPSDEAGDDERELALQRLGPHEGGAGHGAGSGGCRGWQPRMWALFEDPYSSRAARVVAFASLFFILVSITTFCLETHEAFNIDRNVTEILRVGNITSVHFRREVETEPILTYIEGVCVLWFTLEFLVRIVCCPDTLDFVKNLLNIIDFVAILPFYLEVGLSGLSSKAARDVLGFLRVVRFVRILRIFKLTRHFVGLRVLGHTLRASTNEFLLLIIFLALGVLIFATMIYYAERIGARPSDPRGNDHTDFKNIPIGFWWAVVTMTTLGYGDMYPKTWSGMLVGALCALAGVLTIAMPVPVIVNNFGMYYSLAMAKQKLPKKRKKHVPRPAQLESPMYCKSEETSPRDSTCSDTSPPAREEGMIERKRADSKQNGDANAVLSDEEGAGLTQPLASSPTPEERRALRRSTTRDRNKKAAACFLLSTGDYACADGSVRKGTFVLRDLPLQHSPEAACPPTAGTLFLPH
Method: hKv3.4 channels were heterologously expressed in Xenopus ooctyes following microinjection of in vitro transcribed mRNA (mMessage mMachine kit, Ambion, Austin, TX). Whole-oocyte currents were recorded 1-4 day post-microinjection at room temperature (21-23° C.) under two-electrode voltage-clamp conditions (OC-725C, Warner, Hamden, CT). ND-96 and ND-96 plus the test compound were delivered using a gravity-driven perfusion system. Whole-oocyte currents mediated by hKv3.4 channels were elicited by 400 ms depolarizing steps from −40 to 60 mV in 10 mV increments from a holding potential of −100 mV under in the absence and then presence of test compound. Voltage-conductance curves were constructed from the peak currents evoked at each voltage step, and the data were fitted to a Boltzmann equation. Data acquisition, leak subtraction and initial analyses were performed using pClamp 9.2/10.3 (Molecular Devices, Sunnyvale, CA). Macroscopic currents were low-pass filtered at 0.5-1 kHz and digitized at 1-2 kHz. Leak and capacitive currents were subtracted on line using a p/4 subtraction strategy. Xenopus laevis frogs were handled according IACUC approved protocols and regulations.

Row | Structure (SMILES) | effect on Kv7.2/7.3-mediated currents [1] | effect on Kv3.4 mediated channel currents [2] | shift of the voltage-conductance curve for hK3.4 [2]
1 | Cc1ccc(Oc2ncc(N3C(=O)NC(C)(C)C3=O)cn2)c2c1OCC21CC1 [Compound 1, 5,5-dimethyl-3-[2-(7-methylspiro[2H-benzofuran-3,1′-cyclopropane]-4-yl)oxypyrimidin-5-yl]imidazolidine-2,4-dione] | Neither compound was found to have a significant effect | No significant effect | did not significantly shift
2 | CC[C@@]1(C)NC(=O)N(c2cnc(Oc3ccc(C)c(OC(F)(F)F)c3)nc2)C1=O [Compound 2, (5R)-5-ethyl-5-methyl-3-[2-({4-methyl-3-[(trifluoromethyl)oxy]phenyl}oxy)-5-pyrimidinyl]-2,4-imidazolidinedione] | Neither compound was found to have a significant effect | – | –
